Consider 1 compound from patent publication US20230270753A1, “COMBINATIONS OF GABAA ALPHA 5 AGONISTS AND SV2A INHIBITORS AND METHODS OF USING IN THE TREATMENT OF COGNITIVE IMPAIRMENT” (AGENEBIO, INC., priority 2020, published 2023).

The subject of one data set is somatostatin in DG hilus. Briefly: Somatostatin immunohistochemistry, hilar interneuron counts (Example 5). Format: in vivo, rat. The settings on record: levetiracetam 10 mg/kg/day in osmotic minipumps for four weeks; aged-impaired rats. The source says: Tissue was labeled with anti-SOM antiserum (Santa Cruz Biotechnology; cat. no. SC7819-P) using an established immunoperoxidase protocol and tissue sections were processed concurrently to minimize inter-replication variability (Haberman et al., 2009). The anti-SOM antiserum can detect somatostatin. Briefly, sections were washed in 0.1M phosphate-buffered saline (PBS) to remove cryoprotectant, and endogenous peroxidases were quenched in 0.3% H2O2 in PBS. After additional PBS washes, sections were blocked in 5% normal horse serum in PBS with 0.3% Triton. Sections were then incubated with primary antibody at a dilution of 1:1600 in PBS containing 0.15% Triton and 3% normal serum for 72 hours at 4° C. with agitation. […] The secondary antibody was detected with avidin-biotin complex (ABC Elite; Vector Laboratories Inc., Burlingame, Calif.) and the avidin-biotin complex was visualized with nickel-enhanced diaminobenzadine (Vector Laboratories Inc., Burlingame, Calif.). […]
Interneuron quantification was performed using a Zeiss Axioplan 2 microscope equipped with a motorized stage. […] Neuron counts were analyzed as the total number of hilar interneurons per hippocampal section for each rat.

Data set [1] concerns aMCI subjects. Briefly: Explicit 3-alternative forced choice task performance (Examples 2 and 3). Type of data set: in vivo, human.
Data set [2] deals with aMCI subjects. The data set can be described thus: fMRI activity of medial temporal lobe subregions during the explicit 3-alternative forced choice task (Examples 2 and 3). Format: in vivo, human. On the procedure:
A within-subjects trial of 8 weeks duration, involving 17 amnestic MCI (aMCI) subjects and 17 age-matched controls with a low dose treatment of levetiracetam is conducted. […] Age-matched control subjects treated with placebo serve as a further control. […] The […]

For data set [3] the following is noted: following oral administration; cited from earlier work.
The test system of data set [4] is reelin in Entorhinal Cortex (EC2). Briefly: Reelin mRNA in situ hybridization in entorhinal cortex (Example 5). Format: in vivo, rat.
A further data set concerns aged-impaired (AI) rats. Briefly: Radial Arm Maze task, one-hour delay, levetiracetam (Example 1). Format: in vivo, rat. On the procedure:
The effects of levetiracetam on the spatial memory retention of aged-impaired (AI) rats were assessed in a Radial Arm Maze (RAM) behavioral task using vehicle control and five different dosage levels of levetiracetam (1.25 mg/kg/day, 2.5 mg/kg/day, 5 mg/kg/day, 10 mg/kg/day and 20 mg/kg/day). RAM behavioral tasks were performed on ten AI rats. All six treatment conditions were tested on all ten rats, as described above for the MWM test. The RAM apparatus used consisted of eight equidistantly spaced arms. An elevated maze arm (7 cm width×75 cm length) projected from each facet of an octagonal center platform (30 cm diameter, 51.5 cm height). […] A food well (4 cm diameter, 2 cm deep) was located at the distal end of each arm. Froot Loops' (Kellogg Company) were used as rewards. […] Numerous extra maze cues surrounding the apparatus were also provided. The AI rats were initially subjected to a pre-training test (Chappell et al. Neuropharmacology 37: 481-487, 1998). […] In the habituation phase, rats were familiarized to the maze for an 8-minute session on four consecutive days. […] To counterbalance any potential bias, drug effect was assessed using ascending-descending dose series, i.e., the dose series was given first in an ascending order and then repeated in a descending order. […]

The test system of data set [5] is aMCI subjects. Briefly: Neuropsychological tests outside the scanner (Buschke, Benton, Verbal Paired Associates). The note with it: levetiracetam 125 mg twice a day for two weeks. Format: in vivo, human.

For `CC[C@@H](C(N)=O)N1CCCC1=O` [levetiracetam, (2S)-2-(2-oxopyrrolidin-1-yl)butanamide], the “levels of somatostatin in DG hilus (SOM-immunoreactive hilar neurons)” value in the data set with somatostatin in DG hilus was “restores the levels of somatostatin in DG hilus”. The “performance in the explicit 3-alternative forced choice task” value is on record as “improves significantly” in the data set on aMCI subjects [1] (levetiracetam 62.5 mg BID for two weeks), “improves significantly” with aMCI subjects [1] (levetiracetam 125 mg twice a day for two weeks) and “does not significantly improve” in the data set with aMCI subjects [1] (levetiracetam 250 mg BID for two weeks). Moreover, the “DG/CA3 hyperactivity during memory judgments” value in the data set with aMCI subjects [2] (levetiracetam 62.5 mg BID for two weeks, aMCI subjects (N=20)) is on record as “does not significantly reduce”; in the data set on aMCI subjects [2] (levetiracetam 250 mg BID for two weeks, aMCI subjects (N=17)) it was “does not significantly reduce”. Also, in the data set on aMCI subjects [2] (levetiracetam 125 mg twice a day for two weeks, aMCI subjects), the “entorhinal cortex (EC) activity during memory judgments” value was “increases EC activity”. Further, in the data set on aMCI subjects [2] (levetiracetam 125 mg twice a day for two weeks, vs placebo in same aMCI subjects), the “DG/CA3 activity during lure stimuli correctly identified as similar” value was “reduces DG/CA3 hyper-activity”. Moreover, the “time of peak plasma concentrations” value in data set [3] is “about 1 hour”. In addition, the “reelin mRNA expression in the lateral entorhinal cortex vs AI-VEH” value in data set [4] (levetiracetam 10 mg/kg/day for 28 days, AI rats) was “significantly increased the expression of reelin”. In addition, in data set [4] (levetiracetam 10 mg/kg/day in osmotic minipumps for four weeks, aged-impaired rats), the “levels of reelin in Entorhinal Cortex (EC2)” value is listed as “restores the levels of reelin in Entorhinal Cortex (EC2)”. The “effective doses of levetiracetam in the animal model (radial arm maze errors)” value in the data set on aged-impaired (AI) rats (AI rats, levetiracetam on its own) lay in the range of 5 to 10 mg/kg. Moreover, the “reduction of the number of errors in the radial arm maze” value in the data set with aged-impaired (AI) rats (levetiracetam on its own at 1.25 mg/kg or 2.5 mg/kg) is given as “not at 1.25 mg/kg or 2.5 mg/kg”. Moreover, in the data set on aMCI subjects [5], the “performance in Buschke Selective Reminding Test-Delayed Recall, Benton Visual Retention Test, Verbal Paired Associates Test-Recognition and -Delayed Recall” value is recorded as “fail to rescue performance”.
